Laboratory results: PMC7667639, “Optimized Opioid-Neurotensin Multitarget Peptides: From Design to Structure–Activity Relationship Studies” (Journal of Medicinal Chemistry, 2020)
Where two headings read alike, the source gives them in different places. One block for each molecule: values may come before it. Numbered stars: 1 amine (or outer) side, 2 acyl side, 3 side chain; on linkers, the order of the positions; unused ones are H or OH. Square brackets hold non-standard residues; d marks the D form. Peptide text beside a SMILES is read from it. (6-OH)Tic = 6-hydroxy-1,2,3,4-tetrahydroisoquinoline-3-carboxylic acid, O=C([C@@H]1Cc2cc(O[*:3])ccc2CN1[*:1])[*:2]; X1 = O=C1[C@@H](N[*:1])Cc2ccccc2CN1CCC(=O)[*:2]; X2 = O=C([C@@H]1Cc2cc(O)ccc2CN1[*:1])[*:2]; Dmt = Cc1cc(O)cc(C)c1C[C@H](N)C(=O)O; Tle = CC(C)(C)[C@H](N)C(=O)O; β3hK = NCCCC[C@H](N)CC(=O)O

Legend:
human NTS1 [1] = molecular target: T1, human NTS1 (Homo sapiens, UniProt P30989); set-up: host or cells: CHO-K1; settings: CHO membranes, read-out: affinity Ki NTS1; cited from earlier work
human NTS2 receptor [2] = molecular target: T2, human NTS2 receptor (Homo sapiens, UniProt O95665); settings: cited from earlier work; for Ki: human receptor, 1321N1 membranes, read-out: affinity Ki NTS2; for selectivity NTS2/NTS1: ratio of Ki values
T2 construct: host or cells: 1321N1 (human astrocytoma)

[3] = molecular target: human neurotensin 1 receptor (human) (UniProt P30989)
[4] = molecular target: human κ-opioid receptor (human) (UniProt P41145)
[5] = molecular target: human δ-opioid receptor (human) (UniProt P41143)
[6] = molecular target: human μ-opioid receptor (human) (UniProt P35372)
[7] = molecular target: human κ-opioid receptor (human) (UniProt P41145); experiment: radioligand binding; competition on membranes (15–20 μg) of CHO cells stably expressing hMOR, hDOR or hKOR; radioligands [3H]DAMGO (hMOR), [3H]diprenorphine (hDOR), [3H]U69,593 (hKOR); 50 mM Tris-HCl pH 7.4, 60 min, 25 °C, filtration; Ki by Cheng and Prusoff
[8] = molecular target: human δ-opioid receptor (human) (UniProt P41143); experiment: as above
[9] = molecular target: human μ-opioid receptor (human) (UniProt P35372); experiment: as above
[10] = molecular target: human neurotensin 1 receptor (human) (UniProt P30989); experiment: radioligand binding; competition with [125I]-NT on membranes (15–20 μg) of CHO cells (hNTS1) or 1321N1 astrocytoma cells (hNTS2); binding buffer 10 mM Tris, 1 mM EDTA pH 7.5, peptides diluted with 50 mM Tris-HCl and 0.2% BSA; 60 min, ambient temperature, filtration; Ki by Cheng and Prusoff
[11] = molecular target: human neurotensin 2 receptor (human) (UniProt O95665); experiment: as above
human MOR = molecular target: T3, human MOR (Homo sapiens, UniProt P35372); type: biochemical; settings: in words
T3 construct: host or cells: CHO (CHO-hMOR)

NTS2 = tested on: NTS2; set-up: method as in PMID 27359371; settings: in words; cited from earlier work
[12] = cited from earlier work
human KOR = molecular target: T4, human KOR (Homo sapiens, UniProt P41145); experiment: [35S]GTPγS binding assay, CHO-hKOR membranes; type: biochemical; settings: in words
T4 construct: host or cells: CHO (CHO-hKOR)

human DOR = molecular target: T5, human DOR (Homo sapiens, UniProt P41143); experiment: [35S]GTPγS binding assay, CHO-hDOR membranes; type: biochemical; settings: in words
T5 construct: host or cells: CHO (CHO-hDOR)

human NTS2 receptor [13] = molecular target: T2, human NTS2 receptor; experiment: Competitive radioligand binding ([125I]-NT), 1321N1-hNTS2 membranes; settings: ratio of Ki values NTS1 vs NTS2
human NTS1 [14] = molecular target: T1, human NTS1; experiment: cell-based; set-up: expressed in transfected cells; host or cells: HEK293 (transfected with PEI)

Molecule: H-Arg-Arg-Pro-(6-OH)Tic-Tle-Leu-OH (H-RRP[(6-OH)Tic][Tle]L-OH; SMILES CC(C)C[C@H](NC(=O)[C@@H](NC(=O)[C@@H]1Cc2cc(O)ccc2CN1C(=O)[C@@H]1CCCN1C(=O)[C@H](CCCNC(=N)N)NC(=O)[C@@H](N)CCCNC(=N)N)C(C)(C)C)C(=O)O) [compound 15]
Ki (human NTS1 [1]): 6.68 ± 3.7 µM
Ki (human NTS2 receptor [2]): 0.132 ± 0.047 µM

NTS1 Gαq activation (BRET), EC50 [3]: 0.0191 µM
NTS1 Gαq activation (BRET), Emax (% of NT(8-13)) [3]: 101%
KOR [^35S]GTPγS binding, EC50 [4]: 0.0471 µM
KOR [^35S]GTPγS binding, Emax (% of U69,593) [4]: 65%
DOR [^35S]GTPγS binding, EC50 [5]: 0.479 µM
DOR [^35S]GTPγS binding, Emax (% of DPDPE) [5]: 78%
MOR [^35S]GTPγS binding, EC50 [6]: 0.0133 µM
MOR [^35S]GTPγS binding, Emax (% of DAMGO) [6]: 91%
MOR β-arrestin-2 recruitment, EC50 [6]: 0.956 µM
MOR β-arrestin-2 recruitment, Emax (% of DAMGO) [6]: 69%
Ki [7]: 0.0335 µM
Ki [8]: 0.0464 µM
Ki [9]: 0.00413 µM
Ki [10]: 0.188 µM
Ki [11]: 0.0295 µM
Molecule: PK20 (peptide)

Molecule: Cc1cc(O)cc(C)c1C[C@H](NC(=O)[C@@H]1CCCN1C(=O)[C@H](CCCNC(=N)N)NC(=O)[C@H](CCCNC(=N)N)NC(=O)CCN1Cc2ccccc2C[C@H](NC(=O)[C@@H](CCCNC(=N)N)NC(=O)[C@@H](N)Cc2c(C)cc(O)cc2C)C1=O)C(=O)N[C@H](C(=O)N[C@@H](CC(C)C)C(=O)O)C(C)(C)C [compound 5, H-Dmt-D-Arg-Aba-β-Ala-Arg-Arg-Pro-Dmt-Tle-Leu-OH] (H-[Dmt][dR][X1]RRP[Dmt][Tle]L-OH)
functional profile at the MOR (G protein activation) (human MOR): very potent agonists

Molecule: H-Arg-Arg-Pro-(6-OH)Tic-Tle-Leu-OH [compound 15]
selectivity NTS2/NTS1 (human NTS2 receptor [2]): 50

Molecule: COc1cccc(OC)c1-c1cc(C(=O)NC2(C(=O)O)C3CC4CC(C3)CC2C4)nn1-c1ccc(C(=O)N(C)CCCN(C)C)cc1C(C)C (stereo not shown) [SR142948a]
activity at NTS2 in the FLIPR assay (NTS2): full agonist activity

Molecule: H-β^3hArg-Arg-Pro-Dmt-Tle-Leu-OH [peptide 13]
Ki (human NTS1 [1]): 0.0023 ± 0.0002 µM
Ki (human NTS2 receptor [2]): 0.00011 ± 7e-05 µM
selectivity NTS2/NTS1 (human NTS2 receptor [2]): 20.1

Molecule: H-Arg-Arg-Pro-Dmt-Tle-Leu-OH [compound 14]
Ki (human NTS1 [1]): 0.0134 ± 0.002 µM
Ki (human NTS2 receptor [2]): 0.003 ± 0.002 µM
selectivity NTS2/NTS1 (human NTS2 receptor [2]): 4.5

Molecule: CC(C)C[C@H](NC(=O)[C@@H](NC(=O)[C@@H]1Cc2cc(O)ccc2CN1C(=O)[C@@H]1CCCN1C(=O)[C@H](CCCCN)NC(=O)C[C@@H](N)CCCCN)C(C)(C)C)C(=O)O [peptide 2] (H-[β3hK]KP[X2][Tle]L-OH)
plasma stability t1/2 [12]: > 24 h

Molecule: COc1cccc(OC)c1-c1cc(C(=O)NC2(C(=O)O)C3CC4CC(C3)CC2C4)nn1-c1ccnc2cc(Cl)ccc12 (stereo not shown) [SR48692]
activity at NTS2 in the FLIPR assay (NTS2): full agonist activity

Molecule: Cc1cc(O)cc(C)c1C[C@H](N)C(=O)N[C@H](CCCCN)C(=O)N[C@@H](Cc1ccccc1)C(=O)N[C@@H](Cc1ccccc1)C(=O)N[C@@H](CCCCN)C(=O)N[C@@H](CCCCN)C(=O)N1CCC[C@H]1C(=O)N[C@@H](Cc1ccccc1)C(=O)N[C@H](C(=O)N[C@@H](CC(C)C)C(=O)O)C(C)(C)C [PK20] (H-[Dmt][dK]FFKKPF[Tle]L-OH)
functional profile at the KOR (human KOR): relatively potent KOR partial agonist
functional profile at the MOR (G protein activation) (human MOR): potent full agonist
functional profile at the DOR (human DOR): weak partial agonist

Molecule: Cc1cc(O)cc(C)c1C[C@H](N)C(=O)N[C@H](CCCNC(=N)N)C(=O)N[C@H]1Cc2ccccc2CN(CCC(=O)N[C@@H](CCCNC(=N)N)C(=O)N[C@@H](CCCNC(=N)N)C(=O)N2CCC[C@H]2C(=O)N2Cc3ccc(O)cc3C[C@H]2C(=O)N[C@H](C(=O)N[C@@H](CC(C)C)C(=O)O)C(C)(C)C)C1=O [peptide 9, H-Dmt-D-Arg-Aba-β-Ala-Arg-Arg-Pro-(6-OH)Tic-Tle-Leu-OH] (H-[Dmt][dR][X1]RRP[X2][Tle]L-OH)
selectivity NTS2/NTS1 (human NTS2 receptor [13]): > 2700
EC50 (human NTS1 [14]): ~2 µM
fold decrease in NTS1 activity (EC50) compared to NT(8-13) (human NTS1 [14]): 13,000 fold
fold decrease in NTS1 activity (EC50) compared to 1 (human NTS1 [14]; vs 1): ca. 1000 fold
functional profile at the MOR (G protein activation) (human MOR): very potent agonists

Molecule: Cc1cc(O)cc(C)c1C[C@H](N)C(=O)N[C@H](CCCNC(=N)N)C(=O)N[C@H]1Cc2ccccc2CN(CCC(=O)N[C@@H](CCCNC(=N)N)C(=O)N[C@@H](CCCNC(=N)N)C(=O)N2CCC[C@H]2C(=O)N[C@@H](Cc2ccc(O)cc2)C(=O)N[C@H](C(=O)N[C@@H](CC(C)C)C(=O)O)C(C)(C)C)C1=O [peptide 3, H-Dmt-D-Arg-Aba-β-Ala-Arg-Arg-Pro-Tyr-Tle-Leu-OH] (H-[Dmt][dR][X1]RRPY[Tle]L-OH)
functional profile at the MOR (G protein activation) (human MOR): very potent agonists

Molecule: H-Arg-Arg-Pro-m-Tyr-Tle-Leu-OH [compound 16]
Ki (human NTS1 [1]): 0.093 ± 0.022 µM
Ki (human NTS2 receptor [2]): 0.024 ± 0.018 µM
selectivity NTS2/NTS1 (human NTS2 receptor [2]): 4
